Tests used:
[1] = tested on: luciferase-transfected PANC-1 cells; assay: In vivo tumor growth inhibition, orthotopic PANC-1 xenograft; parameters: species or system NOD-SCID-Gamma (NSG) mice; settings: after three weeks of treatment
Description: (§1) 6-8 weeks old male and female NOD-SCID-Gamma (NSG) mice were obtained from NCI and housed in the institutional animal facilities. About 1×10^6 luciferase-transfected PANC-1 cells suspended in 50 μL PBS were injected orthotopically into the pancreas of the mice. Tumors were allowed to grow for three weeks. Then, mice were randomized into four groups of ten (5 male mice and 5 female mice in each group), and 50 μg/mouse Gem, GNP-Gem with an equivalent Gem amount, or unconjugated GNPs were injected intraperitoneally three times a week for three weeks. Tumor growth was measured weekly using an IVIS bio-imager after injecting Luciferin. After three weeks of treatment, mice were sacrificed, and tumors were harvested, measured with slide calipers, and weighed. Tumor volumes were calculated using the formula: V=0.5 X a X b^2, where ‘a’ is the longest tumor axis, and ‘b’ is the shortest tumor axis.
About, 1×10^6 luciferase transfected PANC-1 cells were orthotopically implanted in the pancreas of 6-8 weeks old NSG mice. After three weeks, mice were imaged noninvasively using the Xenogen instrument to confirm tumor growth and then randomized into four groups before the initiation of treatment. Both male and female mice were included in the experiment to delineate any differential sex-dependent therapeutic effect of GNP-Gem. The experiment was terminated after three weeks of treatment. […] FIG. 5C depicts the tumor growth curve as measured by luciferase bioluminescence for female and male mice separately or in combination.

AsPC-1 cells = assay: In vitro cell viability assay (MTS); type: cell-based; settings: AsPC-1, 1 hour treatment, MTS after 72 hours
Description: About 5×10^3 cells were seeded in 96-well plates and treated with increasing doses of GNP, Gem, and GNP-Gem diluted in respective media. After a 1-hour incubation, cells were washed thrice with PBS, overlaid with 100 μL media containing serum and antibiotics, and incubated for another 72 hours. At the end of the incubation, cell viability was measured using Celltiter 96 Aqueous One Solution Cell Proliferation Assay (Promega) as per the manufacturer's protocol. Briefly, the media containing the treatments were aspirated from the plate and washed with PBS. Then, 100 μL media containing 20 μL One Solution reagent was added to each well. The plate was incubated at 37° C. for 30 minutes, and absorbance at 492 nm was measured using Spectramax i3x. Percentage viability was calculated as follows: Viability (%)=100* (ATreated−ABlank)/(AUntreated−ABlank).
To this end, two commercially available pancreatic cancer cell lines were selected (AsPC-1 and PANC-1, obtained from ATCC). The cells were treated with increasing doses of GNP, Gem, and GNP-Gem for 1 hour. After 1 hour, cells were washed three times with PBS to remove the treatments completely in order to reduce any non-specific effect, and fresh media was added to the cells. The cell viability measurement was performed by MTS assay after 72 hours (FIG. 4A-B).

[2] = tested on: luciferase-transfected PANC-1 cells; assay: Histological study of harvested tumors (H&E, Ki67); type: in vivo, NOD-SCID-Gamma (NSG) mice
Description: as §1
Tumors were harvested and fixed in neutral buffered 10% formalin at room temperature for 24 hours prior to embedding in paraffin and sectioning. Sections were deparaffinized and then subjected Hematoxylin and Eosin (H&E) and Ki67 staining according to manufacturer's instructions (DAB 150, Millipore). Stable diaminobenzidine was used as a chromogen substrate, and the sections were counterstained with a hematoxylin solution. Slides were digitized with Aperio AT2 slide scanner (Leica) and analyzed with imagescope software (Leica).

## Nc1ccn([C@@H]2O[C@H](CO)[C@@H](O)C2(F)F)c(=O)n1 [Gem, Gemcitabine]
[1]; female and male combined
  tumor volume, mean: 251 mm^3
  tumor volume, median: 250 mm^3
  tumor weight, mean: 310.86 mg
  tumor weight, median: 280.35 mg
[1]; female mice
  tumor volume, mean: 254.8 mm^3
  tumor volume, median: 254.6 mm^3
  tumor weight, mean: 295.9 mg
  tumor weight, median: 272.4 mg
[1]; male mice
  tumor volume, mean: 247.17 mm^3
  tumor volume, median: 245.3 mm^3
  tumor weight, mean: 325.8 mg
  tumor weight, median: 288.3 mg
AsPC-1 cells
  effect on cell viability: dose dependent effect
[2]; female and male combined
  percentage of Ki67-positive nuclei, mean: 31.4%
  percentage of Ki67-positive nuclei, median: 32.07%
[2]; female mice
  percentage of Ki67-positive nuclei, mean: 31.3%
  percentage of Ki67-positive nuclei, median: 32.3%
[2]; male mice
  percentage of Ki67-positive nuclei, mean: 31.5%
  percentage of Ki67-positive nuclei, median: 31.4%
